Test results: US20250387462A1, “LIPID NANOPARTICLES FOR […] OF NUCLEIC ACIDS AND VACCINE FOR THE PREVENTION OF TU[…] OTHER MYCOBACTERIAL INFECTIONS” (priority 2024, published 2025)

How the values were obtained:
[1] = Apparent solubility of phosphatidylserine salts in ethanol (shake flask); assay type: physicochemical; conditions: 21 °C, organic solvent or mixture, thermodynamic from solid, 100% ethanol, room temperature, average±SD (N=3)
Description: Apparent solubilities of phosphatidylserine salts in ethanol were determined by shake flask technique. Sodium and ammonium salts of phosphatidylserines in the powder form were obtained from Avanti Polar Lipids (Alabama, USA). Aliquots of phosphatidylserine salt powder were placed in 12×75 borosilicate glass tubes in triplicate. Three mL of 200 proof ethanol (catalog number E-7023, MilliporeSigma, USA) were added, the tubes were closed with polyethylene snap caps, agitated using vortex mixer for 10-15 s to obtain uniform suspensions, and placed in a horizontal position on a rocking platform at room temperature (20-22° C.) overnight. The ambient temperature at the end of incubation was 20.4-20.9° C. After 24 hours incubation, the suspensions were visually checked for the presence of a solid phase, allowed to settle under gravity, and the supernatant solutions were passed through a 0.2-μm PTFE syringe membrane filters. The first 0.5 ml of the filtrate was discarded, the next 1 ml was collected, and phosphatidylserine in the filtrates was quantified by phospholipid phosphate assay as follows: 20 μL aliquots of the filtrate were taken in triplicate into glass tubes, ethanol was evaporated in a stream of argon at 70° C., and the residue was digested in a mixture of 60 μL concentrated sulfuric acid and 20 μL 30% hydrogen peroxide for 10 min at 180-190° C. The digested samples were diluted with 1 mL of deionized water, 20 μL of 10% sodium sulfite was added to destroy any residual peroxide, and the samples were incubated on a boiling water bath for 15 min to hydrolyze any condensed phosphate species. The samples were chilled down to room temperature, mixed with 0.2 mL of 2% (w/w) ammonium molybdate solution and 20 μL of 10% (w/w) ascorbic acid solution, incubated on a boiling water bath for 10 min, and chilled down in a water bath at room temperature. The phosphate concentration was determined from the optical density of the formed blue phosphomolybdic acid at 825 nm using five-point standard curve from concurrently run standards prepared from the NIST-traceable commercial phosphate standard solution diluted to cover the range of 0-2 mM phosphate (coefficient of determination R^2>0.9999). Solubility of phosphatidylserine salts was expressed in molarity units of phosphatidylserine (Table 28). The data are average±SD (N=3).

MutuDC1940 cells = assay: mCherry mRNA transfection efficiency of LNPs in murine dendritic cells (flow cytometry); assay type: cell-based; conditions: lipid in LNPs, even in the presence of DPPS targeting lipid
Description: • 1. MutuDC1940 cells (Applied Biological Materials, T0528) were grown according to supplier's instructions in T75 flasks. They were plated at 180,000 cells/well into 24-well plate one day prior to transfection. • 2. LNPs were added in triplicate to each well at the desired mRNA concentration (e.g. 1 μg/mL) in 1 mL media and after 24 h the cells were washed once with DPBS (VWR 02-0119-1000). • 3. 0.2 mL of DPBS (plus 5 mM EDTA, pH 7.4) was then added to facilitate detachment. • 4. The cells were placed at 37° C. for 3 min, until detached. • 5. 0.5 ml DPBS added to each well and the liquid transferred to a flow cytometry tube (Falcon 5 mL #352054). • 6. The tube was centrifuged at 1100 rpm for 3-5 min and the liquid poured off. • 7. 100 μL of Zombie Violet (Biolegend) (diluted 1:500 in PBS) was added to each tube. • 8. The tubes were gently tapped to resuspend cells and placed in the dark for 15 min at RT. • 9. […]
Cells suspensions were analyzed by an Attune NXT flow cytometer using the VL1 and YL2 for live/dead and mCherry fluorescence signals respectively. […]
The aim of this study was to explore the effect of different KC2 and KC3 ICLs on transfection efficiency in murine dendritic cells. […] Two other variants evaluated have monounsaturated alkyl chains with KC3-OA being 18 carbons in length and KC3C17(8:1) having 17 carbons. […]

[2] = In vivo metabolism of ionizable lipid after intramuscular injection
Source text: We have observed that in vivo metabolism of the KC3-OA lipids after intramuscular injection is slow. This is not unexpected because there are no ester linkages in the lipid tail that would allow for the release of the lipid head group and subsequent clearance from the body. We have identified multiple biodegradable ICLs that differ in the length of the lipid tail, the location and orientation of the ester linkage, and the inclusion of a double bond in the lipid tail.

[3] = tested on: Mtb-specific CD4 and CD8 T cells; assay: Mtb antigen-specific splenic CD4 and CD8 T cell responses after mRNA-LNP vaccination of CB6F1 or B6C3F1 mice (peptide pool stimulation, intracellular cytokines); assay type: in vivo; conditions: 1 ug or 0.2 ug i.m., boost 5 weeks, 8 days later, lipid in DPPS-targeted LNP

SMILES	solubility at 24 h [1] [mM]	also measured
CCCCCCCCCCCCCCCC(=O)OC[C@H](COP(=O)(O)OC[C@H](N)C(=O)O)OC(=O)CCCCCCCCCCCCCCC.N [DPPS ammonium]	0.865 ± 0.06	–
CCCCCCCCCCCCCCCC(=O)OC[C@H](COP(=O)(O)OC[C@H](N)C(=O)[O-])OC(=O)CCCCCCCCCCCCCCC.[Na+] [DPPS sodium]	0.201 ± 0.004	–
CCCCCCCCCCCCCCCCCC(=O)OC[C@H](COP(=O)(O)OC[C@H](N)C(=O)O)OC(=O)CCCCCCCCCCCCCCCCC.N [DSPS ammonium]	0.034 ± 0.004	–
CCCCCCCCCCCCCCCCCC(=O)OC[C@H](COP(=O)(O)OC[C@H](N)C(=O)[O-])OC(=O)CCCCCCCCCCCCCCCCC.[Na+] [DSPS sodium]	0.111 ± 0.009	–
CCCCCCCCCCCCCCCCCC1(CCCCCCCCCCCCCCCCC)OC[C@H](CCCN(C)C)O1 [KC3-17, (S)-3-(2,2-diheptadecyl-1,3-dioxolan-4-yl)-N,N-dimethylpropan-1-amine]	–	transfection activity in murine dendritic cells (in words) (MutuDC1940 cells): completely inactive
CCCCCCCC/C=C\CCCCCCCCC1(CCCCCCCC/C=C\CCCCCCCC)OC[C@H](CCCN(C)C)O1 [KC3-OA, 3-((S)-2,2-di((Z)-octadec-9-en-1-yl)-1,3-dioxolan-4-yl)-N,N-dimethylpropan-1-amine]	–	in vivo metabolism after intramuscular injection [2]: slow
CC(C)CCCC(C)CCCC(C)CCOC(=O)CCCCCCCC1(CCCCCCCC(=O)OCCC(C)CCCC(C)CCCC(C)C)OCC(CCCN(C)C)O1 (stereo not shown) [KC3-X1-PH5]	–	CD4 and CD8 T cell magnitude compared to KC3-OA [3]: statistically performed better than KC3-OA
